Test results reported in patent US20040033982A1, “Viral inhibition by n-docosanol” (priority 2001, published 2004).
“Also recorded” adds a separate entry of the source. Read-outs that look alike come from different tables or passages of the source.

Assays:
HSV [1] = experiment: HSV antigens by ELISA, ICP4 immunofluorescence, secondary plaque assay; assay type: cell-based
Description: Thus, the amounts of both HSV core and envelope protein antigens detectable by ELISA, as well as the numbers of infected cells expressing the intranuclear HSV-specific immediate-early protein, ICP4, by immunofluorescence, are reduced by more than 80%. Finally, the replication of infectious virions as measured in secondary plaque assay cultures is markedly diminished by 99% or more in n-docosanol treated cells.

HSV [2] = experiment: HSV-induced plaques in Vero versus MDBK cells; assay type: cell-based
Description: Of the counts that are metabolized in two cells lines, the relative amounts in the major classes of phosphatides that are formed, phosphatidylcholine and phosphatidylethanolamine, are not different in the two cell lines.

lipid-enveloped viruses = experiment: Spectrum of antiviral activity against lipid-enveloped viruses in vitro; assay type: cell-based
Friend Virus = Friend Virus replication in primary embryo fibroblast cultures; assay type: cell-based
HSV-1 = HSV-1 plaque assay in Vero cells, time of drug incubation and removal; assay type: cell-based; conditions: 9 mM
Method: (A) Vero cells were plated and incubated with 9 mM n-docosanol, the corresponding control vehicle or no addition for 0, 3, 6, or 24 h prior to the addition of HSV-1. The viral plaque assay was continued and the number of p.f.u. determined. The data are expressed as % inhibition compared to wells receiving no treatment. (B) Vero cells were plated, n-docosanol or the corresponding control vehicle was added and cells were incubated at 37° C. in 10% humidified CO2. After 21, 24, 25, 26, and 27 h (6, 3, 2, 1, and 0 h before the addition of HSV-1), media containing drug was removed and the cells were washed with media. After a total of 27 h, HSV-1 was added to all wells. Two hours later virus-containing media was removed and replaced with fresh media lacking virus or drugs. The cultures were incubated and processed for determination of the number of HSV-induced plaques as in (A). […]
The cultures were incubated for an additional 42-44 h, washed once with fresh medium, stained and fixed (the staining/fixative consists of 1.25 mg/ml of carbol-fuchsin plus 2.5 mg/ml of methylene blue in methanol) and then scored for HSV-induced plaques using a dissecting microscope (10× magnification). […]

HSV-1 or HSV-2 = experiment: Inhibition of HSV production and plaque formation in Vero cells; assay type: cell-based
Method: Cultured cells were placed in 35-mm wells (2 ml; 3×10^5 cells/ml) in DMEM containing L-glucamine, pennstrep (cDMEM) and supplemented with 5% FCS. n-Docosanol or the corresponding control vehicle (lacking n-docosanol) was added at the outset of the culture. All cultures were then inoculated with 175 p.f.u. of HSV-1 or HSV-2.
The cultures were incubated for an additional 42-44 h, washed once with fresh medium, stained and fixed (the staining/fixative consists of 1.25 mg/ml of carbol-fuchsin plus 2.5 mg/ml of methylene blue in methanol) and then scored for HSV-induced plaques using a dissecting microscope (10× magnification). Thc data are averages of duplicate cultures, which varied by no more than 5-10%.

HSV-I = experiment: Binding of [3H]HSV-I to Vero cells; assay type: cell-based; conditions: virus at 2 p.f.u./cell; n-docosanol 15 mM
Description: Attachment of HSV-I to specific cell surface receptors is unaffected in n-docosanol-treated cells. Previous studies have verified that attachment of HSV-1 to specific cell surface receptors is unaffected in n-docosanol-treated cells. […] Heparin inhibited this interaction 96%.

HSV-2 (333) = experiment: Entry of HSV-2 (333) into CHO-IEβ8 cells (beta-galactosidase, OD600); assay type: cell-based; conditions: for inhibition at 30000 µM: Human alphaherpesvirus 2, 30 mM
Method: CHO-IEβ8 cells were seeded into 24-well plates. After cell attachment, heparin, n-docosanol-vehicle, vehicle alone, or no agent (control) was added. Five to six hours after infection, the cells were processed, X-gal was added, and the absorbance at 600 nm was determined.
Twenty-four hours before infection, cultured cells were seeded into 24-well (16-mm) plates at 2.5×10^6 cells/well in 0.5 ml cDMEM supplemented with 10% fetal bovine serum (FES). After cell attachment (4-6 h later) heparin, n-docosanol-surfactant, or surfactant alone was added to the cells in 0.5 ml DMEM/10% FES. The agents were dissolved in the medium at two times the desired final concentration. For infection, 0.7 ml of medium was removed from each well and 25 μl of virus suspension was added to the remaining 0.3 ml to give a virus dose of at least 20 p.f.u./cell The plates were rocked at 37° C. for 3 h and then put in a 37° C. CO2 incubator for another 2-3 h.
At 5-6 h after infection, the cells were fixed with PES containing 2% formaldehyde and 0.2% glutaraldehyde, washed, then permeabilized with 0.02% NP-40, 0.01% deoxycholate and 2 mM MgCl2. After washing again, 5-bromo-4-chloro-3indolyl-β-galactopyranoside (X-gal) was added for development of blue product. The substrate was removed and replaced with 50% glycerol. Plates were photographed. To quantify the amount of color in each well the glycerol was removed from all wells that were then washed 3× with distilled H2O. DMSO (0.6 ml) was added to solubilize the dye and, after transferring 100 μl of each sample well from the 24-well plate to a 96-well plate, the OD600 was recorded using a 96-well plate reader.
n-Docosanol inhibits HSV-2(333) infectivity of CHO-IEβ8 cells. To further narrow the point of inhibition of viral entry in n-docosanol-treated cells, the effects of the drug on entry of HSV-2 into CHO-IEβ8 cells selected by transfection of CHO cells with a plasmid carrying a Pur selectable marker and lacZ under control of the HSV-1 ICP4 promoter was investigated. In this cell line, β-gal expression is induced upon entry of HSV virion proteins into the cell, an event which occurs immediately upon viral entry into the cellular cytoplasm and which is not dependent on virion transport to the nucleus.

[3] = Toxic, mutagenic, teratogenic properties

CCCCCCCCCCCCCCCCCCCCCCO [n-docosanol]
reduction of HSV core and envelope protein antigens detectable by ELISA (HSV [1]): more than 80% | reduction of numbers of infected cells expressing ICP4 by immunofluorescence (HSV [1]): more than 80% | reduction of replication of infectious virions in secondary plaque assay cultures (HSV [1]): ≥ 99% | effectiveness in inhibiting HSV-induced plaques, Vero versus MDBK cells (HSV [2]): 3-4 fold | HUMAN VIRUSES shown to be susceptible (lipid-enveloped viruses): Respiratory Syncytial Virus; also recorded: Cytomegalovirus; also recorded: Influenza A; also recorded: HIV-1; also recorded: Herpes Simplex-1 & 2; also recorded: Varicella Zoster Virus; also recorded: Human Herpesvirus-6 | MURINE VIRUSES shown to be susceptible (lipid-enveloped viruses): Cytomegalovirus; also recorded: Friend Leukemic Virus; also recorded: LP-BM5 Virus | activity against replication of Friend Virus (Friend Virus): very potent activity | inhibition of plaque formation (HSV-1; 6-h interval between drug removal and HSV-I addition): no inhibition of HSV-I plaque formation was observed | inhibition at 9000 µM (HSV-1; Human alphaherpesvirus 1, Vero, added simultaneously with, or 3 h prior to virus addition, read-out: inhibition of plaque formation): 28% | ID50 for inhibition of HSV production (HSV-1 or HSV-2): 4 mM | ID50 for inhibition of plaque formation (HSV-1 or HSV-2): 9 mM | inhibition of [3H]HSV-I binding (HSV-I): bound normal levels | maximal observed inhibition in comparison to untreated cells (HSV-2 (333)): approximately 75% | reduction in the expression of β-galactosidase (HSV-2 (333)): ≤ 80% | inhibition at 30000 µM (HSV-2 (333); read-out: inhibition of color production compared to Tetronic 908-treated cells): 55% | inhibition at 30000 µM (HSV-2 (333); read-out: inhibition of color production compared to untreated cells): 40% | toxic, mutagenic, or teratogenic properties [3]: lacks any toxic, mutagenic, or teratogenic properties
